Measured values reported in paper PMC9221509, “Discovery of a Novel Antimicrobial Peptide, Temporin-PKE, from the Skin Secretion of Pelophylax kl. esculentus, and Evaluation of Its Structure-Activity Relationships” (Biomolecules, 2022).
Converted amounts (≈) assume the structure as drawn. Read-outs that look alike come from different tables or passages of the source. Non-standard residues stand in square brackets, D forms with d. Residues, ends and D or L forms follow the SMILES beside them. No end group written: not given here.

Experiments:
[1] = tested on: K. pneumoniae (ATCC BAA-1705); assay: microbe, parasite or virus in culture; format: cell-based, Klebsiella pneumoniae; settings: for MBC: ATCC BAA-1705, 18 h; for MIC: ATCC BAA-1705, 24 h
Method: (§1) The antimicrobial activities of peptides were evaluated against the Gram-positive bacteria, S. aureus (ATCC 6538), methicillin-resistant Staphylococcus aureus (MRSA) (NCTC 12493), Enterococcus faecalis (E. faecalis) (NCTC 12697); the Gram-negative bacteria, E. coli (ATCC CRM 8739), Klebsiella pneumoniae (K. pneumoniae) (ATCC 43816), Pseudomonas aeruginosa (P. aeruginosa) (ATCC CRM 9027); and the yeast, Candida albicans (C. albicans) (ATCC CRM 10231). Clinical isolates of MRSA (B042 V2E1 A), E. coli (ATCC BAA-2340), K. pneumoniae (ATCC BAA-1705), and P. aeruginosa (B004 V2S2 B) were also used to determine their antimicrobial activities. The suspension of microorganisms in the logarithmic growth phase with a specific final density (Gram-negative and Gram-positive bacteria: 5 × 10^5 CFU/mL; yeast: 1 × 10^6 CFU/mL) was incubated with different peptide concentrations from 1 µM to 512 µM at 37 °C for 24 h. PBS was used as the negative control, and norfloxacin and amphotericin B were selected as the positive control for bacteria and yeast, respectively. Since the Norfloxacin had weak activities against P. aeruginosa (B004 V2S2 B) and K. pneumoniae (ATCC BAA 1705), gentamicin was used as the positive control for these two bacterial strains. The absorbance of each well was obtained using a microplate reader (EL808, Biolise BioTek, Winooski, VT, USA) set at 550 nm wavelength. The MIC value was the lowest concentration of a peptide that inhibits visible bacterial growth. Once the MIC values were determined, an aliquot from the bacterial culture exposed to the peptide at or above its MIC value was inoculated on a Mueller Hinton agar (MHA) and was incubated at 37 for 18 h. The MBC value was the lowest concentration of a peptide that kills 99.9% of bacteria.

[2] = tested on: K. pneumoniae (ATCC 43816); assay: microbe, parasite or virus in culture; format: cell-based, Klebsiella pneumoniae; settings: for MBC: ATCC 43816, 18 h; for MIC: ATCC 43816, 24 h, read-out: MIC
Method: as §1

S. aureus (ATCC 6538) = assay: microbe, parasite or virus in culture; format: cell-based, Staphylococcus aureus; settings: for MBC: ATCC 6538, 18 h; for MIC: ATCC 6538, 24 h
Method: as §1

[3] = tested on: E. faecalis (NCTC 12697) biofilm; format: cell-based, Enterococcus faecalis; settings: NCTC 12697, 24 h
Method: (§2) The anti-biofilm activities of the peptides against S. aureus (ATCC 6538), MRSA (NCTC 12493), E. faecalis (NCTC 12697), E. coli (ATCC CRM 8739), K. pneumoniae (ATCC 43816), and P. aeruginosa (ATCC CRM 9027), were evaluated. For the MBIC assay, 99 µL of bacterial suspension (5 × 10^5 CFU/mL) was mixed with 1 µL of serial dilutions (from 100 µM to 51,200 µM) of temporin-PKE and its analogues in a 96-well plate, and the plate was incubated in a moist shaking incubator at a speed of 200 rpm at 37 °C for 24 h. For the MBEC assay, 100 µL of bacterial suspension (5 × 10^5 CFU/mL) in each well was seeded in a new 96-well plate, and the plate was put into the same shaking incubator for 24 h incubation to allow biofilm formation on the well. After biofilm formation, the biofilm in the plate was washed with PBS twice. The PBS was aspirated between washes to remove planktonic bacterial cells. The washed biofilm in each well was treated with 100 µL of serial dilutions (from 1 µM to 512 µM) of the test peptides. Then, the plate was incubated in the same shaking incubator for another 24 h. After being washed by PBS twice and fixed with methanol, the biofilm in each well was incubated with 100 µL of 0.1% crystal violet for 30 min, and the stained biofilm was dissolved in 100 µL of glacial acidic acid after drying. The solutions were transferred to a new microplate, and the absorbance of each well was measured using a microplate reader (EL808, Biolise BioTek, Winooski, VT, USA) set to 595 nm wavelength. The MBIC was the minimum concentration of the peptide showing no biofilm formation. The MBEC is the lowest concentration of the peptide capable of eradicating the mature biofilms, which had no biofilm in the well.

[4] = tested on: P. aeruginosa (ATCC CRM 9027) biofilm; format: cell-based, Pseudomonas aeruginosa; settings: ATCC CRM 9027, 24 h
Method: as §2

[5] = tested on: P. aeruginosa (ATCC CRM 9027); assay: microbe, parasite or virus in culture; format: cell-based, Pseudomonas aeruginosa; settings: for MBC: ATCC CRM 9027, 18 h; for MIC: ATCC CRM 9027, 24 h
Method: as §1

[6] = tested on: P. aeruginosa (B004 V2S2 B); assay: microbe, parasite or virus in culture; format: cell-based, Pseudomonas aeruginosa; settings: B004 V2S2 B; for MBC: 18 h; for MIC: 24 h
Method: as §1

MRSA (B042 V2E1 A) = assay: microbe, parasite or virus in culture; format: cell-based, methicillin-resistant Staphylococcus aureus; settings: B042 V2E1 A; for MBC: 18 h; for MIC: 24 h
Method: as §1

MRSA (NCTC 12493) = assay: microbe, parasite or virus in culture; format: cell-based, methicillin-resistant Staphylococcus aureus; settings: for MBC: NCTC 12493, 18 h; for MIC: NCTC 12493, 24 h
Method: as §1

[7] = tested on: C. albicans (ATCC CRM 10231); assay: organism not typed; format: cell-based, Candida albicans; settings: for MBC: ATCC CRM 10231, 18 h, read-out: MBC; for MIC: ATCC CRM 10231, 24 h, read-out: MIC
Method: as §1

[8] = tested on: K. pneumoniae (ATCC 43816); format: cell-based, Klebsiella pneumoniae; settings: ATCC 43816, 24 h
Method: as §1
According to the procedures in a previous article, the analysis of the sensitivity of the peptides was determined by measuring MIC values in the presence of different types of salts and 10% fetal bovine serum. MRSA (NCTC 12493) and K. pneumoniae (ATCC 43816) were selected as the subjects of these assays. Various salts at different concentrations, including 150 mM NaCl, 4.5 mM KCl, 6 μM NH4Cl, 1 mM MgCl2, […], […], and 10% serum (Gibco, Auckland, New Zealand), were added to the MHB medium for the examination of the MIC values which were determined as described in Section 2.7.

Compound	MBC [1]	MIC [1]	MIC [2]	MBC (S. aureus (ATCC 6538))	MIC (S. aureus (ATCC 6538))	MBIC [3]	MBIC [4]	MBC (MRSA (B042 V2E1 A))	MIC (MRSA (B042 V2E1 A))	MBC (MRSA (NCTC 12493))	MBC [7]	MIC against K. pneumoniae in the presence of 4 µM FeCl3 [8]	MIC against K. pneumoniae in the presence of 6 µM NH4Cl [8]	MIC against K. pneumoniae in the presence of 8 µM ZnCl2 [8]	MIC against K. pneumoniae in the presence of 1 mM MgCl2 [8]	MIC against K. pneumoniae in the presence of 2 mM CaCl2 [8]	MIC against K. pneumoniae in the presence of 4.5 mM KCl [8]	MIC against K. pneumoniae in the presence of 150 mM NaCl [8]	MIC against K. pneumoniae in the presence of 10% FBS [8]	MIC against K. pneumoniae, Negative [8]	also measured
FLPLIIGALSSKLPKIF-NH2 [Temporin-PKE-K12]	64 µM	64 µM	32 µM	4 µM	4 µM	64 µM	>512 µM	4 µM	4 µM	4 µM	>512 µM	32 µM	32 µM	64 µM	128 µM	256 µM	32 µM	128 µM	128 µM	32 µM	MBC ([2]; read-out: MBC): 64 µM; MBC [5]: 256 µM; MIC [5]: 256 µM; MBC [6]: 64 µM; MIC [6]: 64 µM; MIC (MRSA (NCTC 12493)): 4 µM; MIC [7]: >512 µM
CC[C@@H](C)[C@@H](NC(=O)[C@H](CCCCN)NC(=O)[C@@H]1CCCN1C(=O)[C@H](CC(C)C)NC(=O)[C@H](CC(C)C)NC(=O)[C@H](CO)NC(=O)[C@H](CO)NC(=O)[C@H](CC(C)C)NC(=O)[C@H](C)NC(=O)CNC(=O)[C@H](NC(=O)[C@H](NC(=O)[C@H](CC(C)C)NC(=O)[C@@H]1CCCN1C(=O)[C@H](CC(C)C)NC(=O)[C@@H](N)Cc1ccccc1)[C@H](C)CC)[C@H](C)CC)C(=O)N[C@@H](Cc1ccccc1)C(N)=O [Temporin-PKE-3i] (H-FLPL[dI][dI]GALSSLLPK[dI]F-NH2)			>512 µM	32 µM (≈ 58.9 µg/mL)	32 µM (≈ 58.9 µg/mL)	128 µM	>512 µM	64 µM (≈ 118 µg/mL)	64 µM (≈ 118 µg/mL)	64 µM (≈ 118 µg/mL)	256 µM (≈ 471 µg/mL)	>512 µM	>512 µM	>512 µM	>512 µM	>512 µM	>512 µM	>512 µM	>512 µM	>512 µM	MBC ([1]; read-out: MBC): >512 µM; MIC ([1]; read-out: MIC): >512 µM; MBC ([2]; read-out: MBC): >512 µM; MBC ([5]; read-out: MBC): >512 µM; MIC ([5]; read-out: MIC): >512 µM; MBC ([6]; read-out: MBC): >512 µM; MIC ([6]; read-out: MIC): >512 µM; MIC (MRSA (NCTC 12493)): 64 µM (≈ 118 µg/mL)
FLPKIIGKLSSLLPKIF-NH2 [Temporin-PKE-3K]	8 µM	8 µM	4 µM	2 µM	2 µM	4 µM	64 µM	2 µM	2 µM	2/2 μM	64 µM	16 µM	4 µM	4 µM	16 µM	16 µM	4 µM	16 µM	16 µM	4 µM	MBC [2]: 4/4 μM; MBC [5]: 16 µM; MIC [5]: 16 µM; MBC [6]: 8 µM; MIC [6]: 8 µM; MIC (MRSA (NCTC 12493); read-out: MIC): 2 µM; MIC [7]: 32 µM
